# Experimental data as given in patent US7550613B2, “Compounds” (Pronova Biopharma Norge AS, priority 2005, dated 2009).
# How the values were obtained:
# PPARγ = biological target: T1, PPARγ (Homo sapiens, UniProt P37231); assay: Affinity testing in transfected cells (release of luciferase); assay type: cell-based; details: FIG. 8; 10 μM of PRBs
# T1 construct: For full length PPAR transfection studies, each well received 5 μg reporter construct; expressed in transfected cells; host or cells: COS-1 cells
# T1 sequence (P37231 1-505): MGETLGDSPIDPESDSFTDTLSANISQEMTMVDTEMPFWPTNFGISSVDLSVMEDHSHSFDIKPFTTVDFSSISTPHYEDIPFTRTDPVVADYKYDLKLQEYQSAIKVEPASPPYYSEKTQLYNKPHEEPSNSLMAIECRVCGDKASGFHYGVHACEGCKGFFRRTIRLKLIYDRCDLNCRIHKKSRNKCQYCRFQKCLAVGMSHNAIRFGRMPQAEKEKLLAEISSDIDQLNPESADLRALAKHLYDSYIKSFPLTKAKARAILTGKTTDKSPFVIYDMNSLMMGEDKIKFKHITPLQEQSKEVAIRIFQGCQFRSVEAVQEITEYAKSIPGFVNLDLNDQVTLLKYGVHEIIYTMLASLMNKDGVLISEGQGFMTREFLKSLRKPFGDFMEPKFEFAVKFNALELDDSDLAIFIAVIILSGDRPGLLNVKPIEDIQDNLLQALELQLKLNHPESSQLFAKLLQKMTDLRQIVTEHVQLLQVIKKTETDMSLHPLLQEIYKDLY
# Description: Release of luciferase is correlated to transcription of genes. Binding of a ligand to a nuclear receptor such as PPARγ induces transcription of the respective gene thereby releasing luciferase. This technique therefore provides a measure of ligand affinity to the receptor as well as activation of the responsible gene.
# Transient transfection of COS-1 cells was performed in 6-well plates as described by Graham and van der Eb (Graham). For full length PPAR transfection studies, each well received 5 μg reporter construct, 2.5 μg pSV-β-galactosidase as an internal control, 0.4 μg pSG5-PPARγ2. The cells were harvested after 72 h, and the luciferase activity was measured according to the protocol (Promega). The luciferase activity was normalised against β-galactosidase activity. The adipocytes were transfected at D11 of differentiation using 16 μl LipofectaminPlus reagent, 4 μl Lipofectamine (Life Technologies Inc.), 0.2 μg pSG5-PPARγ, and 100 ng pTK Renilla luciferase as control of transfection afficiency. […] The luciferase activities were measured as recommended by the manufacturer (Dual Luciferase assay, Promega). […]
# Fatty acids (BRL or DHA) and PRBs (stock solutions) were solubilized to 0.1 M final concentration in DMSO. […] Luciferase activity was measured using a luminometer (TD-20/20 luminometer; Turner Designs, Sunnycvale, Calif.) and normalized against protein content.
# [1] = Histological analysis of tissue samples, liver fat (Example 5c); assay type: in vivo, C57BL/6 mice; details: eosin-hematoxylin; control animals fed high fat diet had fat liver
# From the text: Tissue samples from animals in the experiments with DHA derivatives was histologically analysed. After paraffination, tissue samples from liver, adipose tissue, skeletal muscle, pancreas, and kidney were stained with eosin-hematoxylin.
smiles,measurement,setting,value
"CC/C=C\C/C=C\C/C=C\C/C=C\C/C=C\C/C=C\CC(SCC)C(=O)OCC (stereo not drawn) [PRB-7, α-tioethyl docosahexaenoic acid ethyl ester]",release of luciferase from transfected cells,PPARγ,significantly higher release of luciferase
same,"fat liver (liver steatosis), histology",[1],low degree of fat liver
